Experimental data from patent US20260256763A1, “Aromatic Amide Derivative, And Preparation Method Therefor And Use Thereof” (Zhejiang Hisun Pharmaceutical Co., Ltd., priority 2023, published 2026).
pIC50: −log10 of the molar value.

Key:
OVCAR-3 cells = experiment: Inhibition on OVCAR-3 cell proliferation (CellTiter-Glo); format: cell-based; details: Homo sapiens, OVCAR-3 cells (TP53 R248Q mutation), 72 hours
Procedure: Influences of the compounds of the present invention on OVCAR-3 cell proliferation were determined by the following method. OVCAR-3 cells (containing TP53 R248Q mutation) were purchased from the Cell Bank of Shanghai Institute of Biochemistry and Cell Biology, Chinese Academy of Sciences, and cultured in an RPMI 1640 culture medium containing […], 100 U penicillin and 100 μg/mL streptomycin. A cell viability was determined by a CellTiter-Glo® Luminescent Cell Viability Assay kit (Promega, article number G7573).
An experimental method was operated according to steps in the instruction of the kit, which was briefly described as follows: a test compound was dissolved in DMSO first to prepare a 10 mM stock solution, then the stock solution was diluted with the above RPMI 1640 culture medium to prepare a test sample, and a final concentration of the compound was in a range of 1000 nM-0.015 nM. Cells in a logarithmic growth phase were inoculated into a 96-well cell culture plate at a density of 1000 cells per well, cultured in a 5% CO2 incubator at 37° C. overnight, and then the test compound was added to continuously culture for 72 hours. After the culture was ended, 50 μL of CellTiter-Glo detection solution was added to each well, the plates were shaken for 5 minutes, and then allowed to stand for 10 minutes, and subsequently, a luminous value of each well of sample was read by a microplate reader in a Luminescence mode. By comparing with a numerical value of a control group (0.3% DMSO), a percentage inhibition rate of the compound at each concentration was calculated, and then nonlinear regression analysis was carried out based on concentration logarithm-inhibition rate of the compound in GraphPad Prism 5 software, so as to obtain an IC50 value of the compound in inhibition on cell proliferation, which are shown in Table 1.

recombinant human KIF18A = molecular target: T1, recombinant human KIF18A (Homo sapiens, UniProt Q8NI77); experiment: Inhibition on KIF18A enzyme activity (ADP-Glo); format: biochemical; details: recombinant human KIF18A 100 nM, ATP 60 μM
T1 construct: purchased GenScript
T1 sequence (Q8NI77 whole entry): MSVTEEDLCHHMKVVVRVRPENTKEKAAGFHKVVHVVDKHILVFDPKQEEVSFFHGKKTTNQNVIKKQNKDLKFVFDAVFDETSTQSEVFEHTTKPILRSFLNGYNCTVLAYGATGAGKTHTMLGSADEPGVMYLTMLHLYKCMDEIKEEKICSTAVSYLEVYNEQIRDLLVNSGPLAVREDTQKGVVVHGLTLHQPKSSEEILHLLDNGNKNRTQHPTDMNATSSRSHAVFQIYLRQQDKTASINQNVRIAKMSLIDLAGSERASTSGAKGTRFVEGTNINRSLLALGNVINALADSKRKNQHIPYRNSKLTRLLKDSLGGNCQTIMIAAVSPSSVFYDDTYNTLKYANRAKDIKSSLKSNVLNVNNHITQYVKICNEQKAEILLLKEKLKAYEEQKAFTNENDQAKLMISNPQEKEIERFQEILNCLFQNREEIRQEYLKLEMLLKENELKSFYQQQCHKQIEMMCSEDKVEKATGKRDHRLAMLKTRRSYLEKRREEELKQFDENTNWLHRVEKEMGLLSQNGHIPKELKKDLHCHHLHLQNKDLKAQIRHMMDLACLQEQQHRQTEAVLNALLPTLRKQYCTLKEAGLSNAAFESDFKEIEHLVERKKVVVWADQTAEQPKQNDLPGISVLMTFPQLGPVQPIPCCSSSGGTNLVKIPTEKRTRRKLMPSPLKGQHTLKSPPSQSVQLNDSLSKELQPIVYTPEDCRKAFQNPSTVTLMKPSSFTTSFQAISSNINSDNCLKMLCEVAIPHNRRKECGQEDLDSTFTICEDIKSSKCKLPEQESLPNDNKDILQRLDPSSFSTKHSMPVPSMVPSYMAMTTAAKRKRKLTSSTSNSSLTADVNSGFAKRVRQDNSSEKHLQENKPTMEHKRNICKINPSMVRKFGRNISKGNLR
T1 sequence (P68363 whole entry partner): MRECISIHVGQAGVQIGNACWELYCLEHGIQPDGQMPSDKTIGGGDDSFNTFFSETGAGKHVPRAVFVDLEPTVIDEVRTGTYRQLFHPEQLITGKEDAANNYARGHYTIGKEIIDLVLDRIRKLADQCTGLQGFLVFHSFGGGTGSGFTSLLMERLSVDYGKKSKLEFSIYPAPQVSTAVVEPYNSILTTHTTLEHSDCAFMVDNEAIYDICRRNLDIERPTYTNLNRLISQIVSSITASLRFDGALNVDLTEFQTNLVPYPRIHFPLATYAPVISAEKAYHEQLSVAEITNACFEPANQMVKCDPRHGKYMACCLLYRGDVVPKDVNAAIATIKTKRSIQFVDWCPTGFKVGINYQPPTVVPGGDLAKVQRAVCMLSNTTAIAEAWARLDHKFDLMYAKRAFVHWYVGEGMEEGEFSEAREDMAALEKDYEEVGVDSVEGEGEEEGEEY
T1 sequence (Q9BVA1 whole entry partner): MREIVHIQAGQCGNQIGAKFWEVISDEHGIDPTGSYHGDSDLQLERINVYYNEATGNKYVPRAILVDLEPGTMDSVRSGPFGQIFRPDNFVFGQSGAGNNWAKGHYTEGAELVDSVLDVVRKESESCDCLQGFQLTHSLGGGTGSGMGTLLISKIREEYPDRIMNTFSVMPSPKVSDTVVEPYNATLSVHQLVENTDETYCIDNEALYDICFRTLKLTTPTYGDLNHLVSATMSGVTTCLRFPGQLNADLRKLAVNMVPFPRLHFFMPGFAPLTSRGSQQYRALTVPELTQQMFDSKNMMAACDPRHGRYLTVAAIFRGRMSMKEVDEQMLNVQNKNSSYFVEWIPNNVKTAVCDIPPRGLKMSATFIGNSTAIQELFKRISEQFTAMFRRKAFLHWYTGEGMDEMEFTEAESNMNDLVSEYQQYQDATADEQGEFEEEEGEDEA
Procedure: Inhibition degrees of the compounds of the present invention on recombinant human KIF18A enzyme activity in vitro were determined by the following method. An ADP-Glo™ Kinase Assay kit (article number V9102) from Promega Company was used in this method. Detailed experimental operation can be referred to the instruction of the kit.
The reaction was carried out in a 384-well microplate. The test compound and the recombinant human KIF18A protein (final concentration of 100 nM, entrusted to GenScript for expression) were added into the wells and incubated at room temperature for 20 minutes, and subsequently, ATP solution (component V915A from the ADP-Glo™ Kinase Assay kit, final concentration of 60 μM) was added to the reaction solution and the obtained system was incubated at room temperature for 20 minutes. Subsequently, 5 μL of ADP-Glo Reagent was added to the reaction system and the obtained system was incubated at room temperature for 50 minutes. Then, 10 μL of Kinase Detection Reagent was added to the reaction system, and the obtained system was incubated at room temperature for 30 minutes. After the incubation was ended, a chemiluminiscence intensity value of each well was determined by a microplate reader in a Luminescence mode.

| Compound | pIC50 (OVCAR-3 cells) | pIC50 (recombinant human KIF18A) |
| --- | --- | --- |
| CCS(=O)(=O)Nc1ccc(C(=O)Nc2cc(N3CCC(F)(F)C3)c3nn(C)cc3c2)c(N2CCC3(CC2)CC3)c1 [Example 25, N-(7-(3,3-difluoropyrrolidin-1-yl)-2-methyl-2H-indazol-5-yl)-4-(ethylsulfonamido)-2-(6-azaspiro[2.5]octan-6-yl)benzamide] | 7.47 | 6.70 |
| CCS(=O)(=O)Nc1ccc(C(=O)Nc2cc3c(c(N4CCC(F)(F)C4)c2)OCC3)c(N2CCC3(CC2)CC3)c1 [Example 5, N-(7-(3,3-difluoropyrrolidine-1-yl)-2,3-dihydrobenzofuran-5-yl)-4-(ethylsulfonamido)-2-(6-azaspiro[2.5]octan-6-yl)benzamide] |  | 6.87 |
| CCS(=O)(=O)Nc1ccc(C(=O)Nc2cc3c(c(CC(C)C)c2)OCC3)c(N2CCC3(CC2)CC3)c1 [Example 10, 4-(ethylsulfonamido)-N-(7-isobutyl-2,3-dihydrobenzofuran-5-yl)-2-(6-azaspiro[2.5]octan-6-yl)benzamide] |  | 6.57 |
| CCS(=O)(=O)Nc1ccc(C(=O)Nc2cc(N3CCC(F)(F)CC3)c3cn(C)nc3c2)c(N2CCC3(CC2)CC3)c1 [Example 17, N-(4-(4,4-difluoropiperidin-1-yl)-2-methyl-2H-indazol-6-yl)-4-(ethylsulfonamido)-2-(6-azaspiro[2.5]octan-6-yl)benzamide] | 8.18 | 6.55 |
| CCS(=O)(=O)Nc1ccc(C(=O)Nc2cc3c(c(N4CCOCC4)c2)C(=O)N(C)C3)c(N2CCC3(CC2)CC3)c1 [Example 27, 4-(ethylsulfonamido)-N-(2-methyl-7-morpholino-1-oxoisoindolin-5-yl)-2-(6-azaspiro[2.5]octan-6-yl)benzamide] | 8.71 | 6.96 |
| Cn1cc2cc(NC(=O)c3ccc(NS(=O)(=O)C4CC4)cc3N3CCC4(CC3)CC4)cc(N3CCC(F)(F)CC3)c2n1 [Example 26] |  | 6.59 |
| CCS(=O)(=O)Nc1ccc(C(=O)Nc2cc3c(c(N4CCC5(CC4)CC5)c2)OCC3)c(N2CCC3(CC2)CC3)c1 [Example 4, N-(7-(6-azaspiro[2.5]octan-6-yl)-2,3-dihydrobenzofuran-5-yl)-4-(ethylsulfonamido)-2-(6-azaspiro[2.5]octan-6-yl)benzamide] |  | 6.67 |
| CCS(=O)(=O)Nc1ccc(C(=O)Nc2cc(N3CCC(F)(F)CC3)c3cn[nH]c3c2)c(N2CCC3(CC2)CC3)c1 [Example 20, N-(4-(4,4-difluoropiperidin-1-yl)-1H-indazol-6-yl)-4-(ethylsulfonamido)-2-(6-azaspiro[2.5]octan-6-yl)benzamide] | 7.69 | 6.71 |
| CCS(=O)(=O)Nc1ccc(C(=O)Nc2cc3c(c(C4CC4)c2)OCC3)c(N2CCC3(CC2)CC3)c1 [Example 8, N-(7-cyclopropyl-2,3-dihydrobenzofuran-5-yl)-4-(ethylsulfonamido)-2-(6-azaspiro[2.5]octan-6-yl)benzamide] |  | 7.04 |
| CCS(=O)(=O)Nc1ccc(C(=O)Nc2cc(N3CCC(F)(F)CC3)c3oc(C)nc3c2)c(N2CCC3(CC2)CC3)c1 [Example 22, N-(7-(4,4-difluoropiperidin-1-yl)-2-methylbenzo[d]oxazol-5-yl)-4-(ethylsulfonamido)-2-(6-azaspiro[2.5]octan-6-yl)benzamide] | 7.48 | 7.01 |
| O=C(Nc1cc2c(c(C3(O)CCC(F)(F)CC3)c1)OCC2)c1ccc(NS(=O)(=O)C2CC2)cc1N1CCC2(CC1)CC2 [Example 12, 4-(cyclopropanesulfonamido)-N-(7-(4,4-difluoro-1-hydroxycyclohexyl)-2,3-dihydrobenzofuran-5-yl)-2-(6-azaspiro[2.5]octan-6-yl)benzamide] |  | 6.76 |
| CCS(=O)(=O)Nc1ccc(C(=O)Nc2cc3c(c(C4(O)CCC(F)(F)CC4)c2)OCC3)c(N2CCC3(CC2)CC3)c1 [Example 11, N-(7-(4,4-difluoro-1-hydroxycyclohexyl)-2,3-dihydrobenzofuran-5-yl)-4-(ethylsulfonamido)-2-(6-azaspiro[2.5]octan-6-yl)benzamide] |  | 6.58 |
